Assay [1] addresses HBV C150Bo capsid protein (HBV CA protein) (Hepatitis B virus genotype D subtype adw, UniProt P03147, C107A/C48A/C61A/R150C). Kind of assay: HBV assembly assay (fluorescence quenching in vitro assembly). As to conditions: at 10 μM. It is filed as biochemical.
In assay [2] the test system is HBV replication in HepG2-2.2.15 cells. As to the kind of experiment: Dot-blot assay of HBV replication. It is filed as cell-based. As to conditions: Hepatitis B virus, 144 h. The procedure: Compounds active in the HBV assembly assay are tested for their activity and toxicity in cellular assay. In the first anti-viral assay, the ability of compounds to inhibit HBV replication in an HBV-producing hepatoma cell line using the dot-blot method is evaluated.
Briefly, confluent monolayers of HepG2-2.2.15 cells are incubated with complete medium containing various concentrations of a test compound. Three days later, the culture medium is replaced with fresh medium containing the appropriately diluted test compound. Six days following the initial administration of the test compound, the cell culture supernatant is collected, and cell lysis is performed. The samples are applied onto Nylos membranes and DNA is immobilized to the membrane by UV cross-linking. After pre-hybridization, the HBV probe is added and the hybridization is performed overnight. The membranes are exposed to the Kodak films; antiviral activity is calculated from the reduction in HBV DNA levels (EC50). The EC50 for antiviral activity is calculated from the dose response curves of active compounds.
In the first anti-viral assay, the ability of compounds to inhibit HBV replication in an HBV-producing hepatoma cell line using the dot-blot method was evaluated.
Confluent monolayers of HepG2-2.2.15 cells were incubated with complete medium containing various concentrations of a test compound. Three days later, the culture medium was replaced with fresh medium containing the appropriately diluted test compound. Six days following the initial administration of the test compound, the cell culture supernatant was collected, and cell lysis was performed. The samples were applied onto Nylos membranes and DNA was immobilized to the membrane by UV cross-linking. After pre-hybridization, the HBV probe was added and the hybridization was performed overnight. The membranes were exposed to the Kodak films; antiviral activity was calculated from the reduction in HBV DNA levels (EC50). The EC50 for antiviral activity was calculated from the dose response curves of active compounds. […]

Sequence of HBV C150Bo capsid protein (HBV CA protein) (P03147 1-150 C48A/C61A/C107A/R150C): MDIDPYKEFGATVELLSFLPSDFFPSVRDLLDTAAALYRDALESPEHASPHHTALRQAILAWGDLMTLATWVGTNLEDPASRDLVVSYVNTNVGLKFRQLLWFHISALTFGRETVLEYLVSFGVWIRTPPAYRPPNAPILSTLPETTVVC

As for `CN(CCO)S(=O)(=O)c1cc(C(=O)Nc2ccc(F)c(Cl)c2)c(Cl)cc1F` [compound 1345], the “Activity in HBV assembly assay” value in assay [1] is reported as “+ (‘+’ indicates >50% activity at 10 μM)”. The same compound returned an inhibition at 10 µM in assay [2] of more than 50%.
On the same counts, the results for `O=C(Nc1cc(F)c(F)c(F)c1)c1cc(S(=O)(=O)N2CCC(O)(CO)CC2)c(F)cc1Cl` [compound 1379] are “+ (‘+’ indicates >50% activity at 10 μM)” and more than 50%.
On the same counts, the results for `O=C(Nc1ccc(F)c(Cl)c1)c1cc(S(=O)(=O)N2CCC(O)(CO)CC2)c(F)cc1Cl` [compound 1380] are “+ (‘+’ indicates >50% activity at 10 μM)” and more than 50%.
On the same counts, the results for `O=C(Nc1cc(F)c(F)c(F)c1)c1cc(S(=O)(=O)NC2COCC2O)c(F)cc1Cl` (centres unmarked) [compound 1404] are “+ (‘+’ indicates >50% activity at 10 μM)” and more than 50%.
Consider `O=C(Nc1ccc(F)c(Cl)c1)c1cc(S(=O)(=O)N2CC(O)C(F)C2)c(F)cc1Cl` (centres unmarked) [compound 1410], for which the “Activity in HBV assembly assay” value in assay [1] was “+ (‘+’ indicates >50% activity at 10 μM)”. Further, the inhibition at 10 µM in assay [2] is more than 50%.
In the case of `O=C(Nc1ccc(F)c(F)c1)c1cc(S(=O)(=O)N2CC(O)C(F)C2)c(F)cc1Cl` (centres unmarked) [compound 1413], the “Activity in HBV assembly assay” value in assay [1] was “+ (‘+’ indicates >50% activity at 10 μM)”. In assay [2], this compound returned an inhibition at 10 µM of more than 50%.
For `O=C(Nc1cc(F)c(F)c(F)c1)c1ccc(CO)c(S(=O)(=O)N2CCC(O)CC2)c1` [compound 1420], in that order: “+ (‘+’ indicates >50% activity at 10 μM)” and more than 50%.

As a reminder, the inhibition is the relative decrease from the control value, in per cent. The low end stands for a weak effect, the high end for a strong effect.
